Laboratory results from PMC11266098, “Prenylated flavonoids from Sophora flavescens inhibit mushroom tyrosinase activity and modulate melanogenesis in murine melanoma cells and zebrafish” (Frontiers in Pharmacology, 2024).
Entries after “also recorded” stand apart in the source; their conditions may differ.

Key:
[1] = system: zebrafish larvae; experiment: Melanogenesis in zebrafish larvae pretreated with PTU; type: in vivo; details: 48 h, PTU 200 μM pretreatment
Method: (§1) To assess the effects of these compounds on melanogenesis in vivo, the total melanin content of whole zebrafish extracts was measured according to a previously described method with minor modification ([Karunarathne et al., 2019]; [Ding et al., 2021]). Briefly, zebrafish larvae of 24 h post-fertilized (hpf) were seeded in 24-well plates with ten embryos per well, each group was set up with four replicates and pretreated with 200 μM PTU for 24 h. Then, the culture medium was replaced with different concentrations of test samples and treated for another 48 h. 8-MOP (50 μM) was used as a positive control, blank controls were not treated and were cultured normally. In addition, to further verify the whitening effect of the compounds, ten zebrafish larvae (24 hpf) per well were seeded in a 24-well plate and cultured for another 24 h using fresh culture media, and each group was set up with four duplicates. Then, the culture medium was replaced with different concentrations of test samples, and the zebrafish larvae were incubated for another 48 h. 8-MOP (50 μM) and arbutin (100 mM) were used as positive controls. Spontaneous melanin content was measured from zebrafish larvae at 96 hpf. The fish embryos were fixed upright with sodium carboxymethylcellulose fixative. Five fish embryos from each experiment were randomly selected for photography under a stereomicroscope. The densitometric analysis was performed using Image J software.

[2] = system: TRP-1; experiment: Western blotting of TRP-1 in B16F10 cells; type: cell-based, murine; details: 48 h
Method: (§2) Equal amounts of proteins from the preceding step were loaded and separated by using the 10% SDS-PAGE gels before being electro-transferred onto polyvinylidene fluoride membranes. The membrane was then blocked with 5% skim milk in TBST (Tris-buffered saline containing 0.1% Tween 20) at room temperature for 2 h. The blots were incubated overnight with primary antibodies against TYR, TRP-1, MITF, DCT, and β-actin at 4°C. After washing thrice with TBST (5 min), the membrane was incubated with the secondary antibody for 1 h at room temperature. The protein bands were detected using the ECL detection kit and imaged using a chemiluminescence gel imaging system, and the band intensities were analyzed by the Image J software.

[3] = Cell viability assay (MTT); type: cell-based, murine; details: mouse, B16F10 cells
Method: B16F10 cells were seeded into 96-well plates at the density of 5 × 10^4 cells/mL, and incubated at 37°C for 24 h. Then, the cells were treated with different concentrations of test samples for 48 h. After incubation, 20 μL MTT (5 mg/mL) was added to each well, and incubated for another 4 h at 37°C. The reaction was stopped by adding 150 μL DMSO per well. The optical density at 490 nm was measured using a microplate reader. Cell viability was calculated as the percentage of viable cells relative to the control group.

[4] = system: zebrafish larvae; experiment: Zebrafish depigmentation model (without PTU pretreatment); type: in vivo; details: 48 h, no PTU pretreatment
Method: as §1

[5] = system: B16F10 cells; experiment: Measurement of melanin content in B16F10 cells; type: cell-based, murine; details: 48 h; for increase of intracellular melanin content: vs untreated cells
Method: Measurement of melanin content was carried out according to a previously described method with a slight modification ([Karunarathne et al., 2019]). B16F10 cells were cultured in 6-well plates at the density of 2 × 10^5 cells/mL overnight before being treated with different concentrations of test samples for 48 h. After the treatments, the medium was discarded and the cells were washed twice with PBS and were collected, then 200 μL of RIPA lysis buffer was added to each well, and left standing in an ice bath for 40 min. The lysates were then clarified by centrifugation for 20 min at 4°C, 12,000 r/min. The protein content in the supernatants was measured using the Pierce BCA protein assay kit. Then the harvested cell pellets were photographed and dissolved in 100 μL of 1 M NaOH (containing 10% DMSO) at 100°C for 1 h. Melanin content was determined by measuring absorption at 405 nm. For the accurate calculation of melanin content, absorbance values were normalized to total protein absorbance values.

[6] = target: T1, Intracellular tyrosinase in B16F10 cells (Mus musculus, UniProt P11344); experiment: Measurement of tyrosinase activity in B16F10 cells (L-DOPA oxidation); type: cell-based, murine; details: 48 h
T1 construct: endogenous in cells; host or cells: B16F10 murine melanoma cells
T1 sequence (P11344 19-533): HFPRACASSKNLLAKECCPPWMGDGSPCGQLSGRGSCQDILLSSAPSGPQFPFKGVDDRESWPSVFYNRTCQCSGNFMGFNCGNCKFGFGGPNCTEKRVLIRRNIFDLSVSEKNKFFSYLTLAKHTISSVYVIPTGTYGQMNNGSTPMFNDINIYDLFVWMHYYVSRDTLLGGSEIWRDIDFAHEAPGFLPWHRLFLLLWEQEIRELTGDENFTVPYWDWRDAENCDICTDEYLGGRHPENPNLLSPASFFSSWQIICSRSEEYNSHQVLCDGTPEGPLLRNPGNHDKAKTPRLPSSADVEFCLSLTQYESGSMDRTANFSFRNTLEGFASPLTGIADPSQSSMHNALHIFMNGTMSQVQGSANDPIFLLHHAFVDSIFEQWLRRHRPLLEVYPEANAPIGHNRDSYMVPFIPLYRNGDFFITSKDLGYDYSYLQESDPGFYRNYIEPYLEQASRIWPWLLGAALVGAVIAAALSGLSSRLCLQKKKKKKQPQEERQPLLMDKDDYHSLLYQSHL
Method: Intracellular tyrosinase activity was determined by measuring the rate of oxidation of L-DOPA to dopachrome according to a previously described method with a slight modification ([Maack and Pegard, 2016]). The tyrosinase inhibitor glabridin ([Zhang et al., 2023]) and tyrosinase activator 8-MOP ([Yin et al., 2018]) were both utilized as controls to ensure the accuracy of tyrosinase activity assay in living cells. B16F10 cells were cultured in 24-well plates at the density of 5 × 10^4 cells/mL overnight and then treated with different concentrations of test samples for 48 h. After treatments, cells were washed twice with PBS, lysed with PBS containing 1% Triton X-100, and frozen at −80°C for 1 h. The lysates were then clarified by centrifugation for 20 min at 4°C, 12,000 r/min. The protein content in the supernatants was measured using the Pierce BCA protein assay kit. After protein quantification and the adjustment of the protein concentrations, 100 μL of each lysate was mixed with 100 μL of 4 mM L-DOPA in a 96-well plate, and then incubated at 37°C for 1 h, the optical density at 475 nm was measured using a microplate reader. Tyrosinase activity was expressed as a percentage of the control. All experiments were carried out at least three times.

[7] = system: MITF; experiment: Western blotting of MITF in B16F10 cells; type: cell-based, murine; details: 48 h
Method: as §2

[8] = system: DCT; experiment: Western blotting of DCT in B16F10 cells; type: cell-based, murine; details: 48 h
Method: as §2

[9] = system: zebrafish embryos; experiment: Determination of the maximum tolerated concentration (MTC) in zebrafish embryos; type: in vivo; details: 24 h
Method: Zebrafish embryos that were developing normally at 24 h were chosen at random, five zebrafish embryos per well were seeded in 48 well plates, and each group was set up with three duplicates. The embryo culture medium in the 48-well plate was removed except the blank group, and 1 mL of culture medium containing different concentrations of test samples was added to treatment groups for 24 h. The vehicle control group was added to the embryo culture medium containing 0.1% of DMSO.

[10] = target: mushroom tyrosinase (Agaricus bisporus, UniProt C7FF04); experiment: Tyrosinase inhibition kinetic analysis (Lineweaver-Burk); type: biochemical; details: Lineweaver-Burk plots, L-tyrosine substrate
Sequence of mushroom tyrosinase (C7FF04 1-392): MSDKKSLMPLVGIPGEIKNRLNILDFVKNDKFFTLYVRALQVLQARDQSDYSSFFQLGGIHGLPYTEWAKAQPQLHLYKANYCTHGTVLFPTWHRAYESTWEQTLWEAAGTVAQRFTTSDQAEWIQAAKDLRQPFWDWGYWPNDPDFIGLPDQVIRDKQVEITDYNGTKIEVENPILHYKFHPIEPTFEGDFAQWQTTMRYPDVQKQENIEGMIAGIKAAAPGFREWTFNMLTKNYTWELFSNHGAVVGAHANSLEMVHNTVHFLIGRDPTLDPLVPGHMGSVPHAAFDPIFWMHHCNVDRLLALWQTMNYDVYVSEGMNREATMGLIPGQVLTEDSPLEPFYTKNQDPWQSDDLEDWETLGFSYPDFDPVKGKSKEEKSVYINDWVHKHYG
Method: The enzyme reaction kinetics of these compounds were measured by constructing Lineweaver-Burk plots of inverse velocities (1/[V]), contrary to the inverse of substrate concentration (1/[S]) ([Yoshino and Murakami, 2009]; [Butt et al., 2019]). Preincubations and measurement times were performed using the same protocol as described above. The substrate tyrosine concentration was kept between 0.5 and 8 mM in all kinetic studies, test sample concentrations were set as follows: glabridin (0–0.625 µM), KR (0–5 µM), SG (0–10 µM), IAI (0–2 µM). The values of the kinetic constants were calculated using Lineweaver-Burk plot analysis, and the maximum velocity (Vmax) and Michaelis constant (Km) were also calculated by the Lineweaver-Burk plots with the various concentrations of substrate.

[11] = target: tyrosinase; parameters: method as in Kim et al., 2003; details: ref Kim et al., 2003; read-out: IC50 (inhibition on tyrosinase activity); cited from earlier work
[12] = system: TYR; experiment: Western blotting of TYR in B16F10 cells; type: cell-based, murine; details: 10 μM, 48 h
Method: as §2, with “[…],” for “TRP-1,”

Question: For `COc1c2occc2cc2ccc(=O)oc12` [8-MOP, 8-methoxypsoralen, reference compound], which “increase of melanin production vs model (PTU) group” value ([1]; 50 μM) is on record?
Answer: 25.0%

Question: What about the “expression of TRP-1 (in words)” value ([2]; positive control) of the same compound?
Answer: increased

Question: And the viability at 48 h ([3]; 0–100 μM)?
Answer: > 80%

Question: What about the “effect on melanin production vs control group (in words)” value [4] of the same compound?
Answer: did not affect melanin production

Question: What about the “effect on melanin production in B16F10 cells (in words)” value [5] of the same compound?
Answer: promoted melanin biosynthesis

Question: What about the “effect on tyrosinase activity in B16F10 cells (in words)” value (“effect on tyrosinase activity” below) [6] of the same compound?
Answer: enhance cellular tyrosinase activity

Question: What about the “expression of MITF (in words)” value ([7]; positive control) of the same compound?
Answer: increased

Question: With `CC1(C)C=Cc2c(ccc3c2OC[C@@H](c2ccc(O)cc2O)C3)O1` [Glabridin, glabridin, reference compound] as the compound, how does the viability at 48 h ([3]; 0–2 μM) read?
Answer: > 80%

Question: What about the “effect on melanin production in B16F10 cells (in words)” value [5] of the same compound?
Answer: strong anti-melanogenic effect

Question: And the “effect on tyrosinase activity” value [6]?
Answer: inhibited tyrosinase activity

Question: For `COc1cc(O)c2c(=O)c(O)c(-c3ccc(O)cc3)oc2c1CC=C(C)C` [IAI, isoanhydroicaritin], which “upregulation of relative expression of TRP-1 protein” value ([2]; 5 μM) is on record?
Answer: 240.0%

Question: And the viability at 48 h ([3]; 0–5 μM)?
Answer: > 80%

Question: What about the “reduction of pigmentation vs control group” value (shortened to “reduction of pigmentation”) ([4]; 80 μM) of the same compound?
Answer: 33.0%

Question: And the “reduction of pigmentation” value ([4]; 160 μM)?
Answer: 34.4%

Question: What about the “effect on melanin production in B16F10 cells (in words)” value [5] of the same compound?
Answer: did not exhibit significant activity; also recorded: did not exert any significant effects

Question: And the “increase of tyrosinase activity in B16F10 cells” value (“increase of tyrosinase activity” for short) ([6]; 5 μM)?
Answer: 25.2%

Question: What about the “effect on tyrosinase activity” value [6] of the same compound?
Answer: did not exhibit significant activity

Question: What about the “upregulation of relative expression of DCT protein” value ([8]; 5 μM) of the same compound?
Answer: 83.4%

Question: What about the “toxicity in zebrafish by the MTC assay” value ([9]; 40, 80, and 160 μM) of the same compound?
Answer: nontoxic

Question: What about the “inhibition type on tyrosinase” value [10] of the same compound?
Answer: mixed type

Question: Which IC50 [11] does the source give for `C=C(C)[C@H](CC=C(C)C)Cc1c(O)cc(OC)c2c1O[C@H](c1ccc(O)cc1O)CC2=O` [KR, kurarinone] here?
Answer: 6.2 µM

Question: What about the “increase of melanin production vs model (PTU) group” value ([1]; 20 μM) of the same compound?
Answer: 36.9%

Question: What about the “upregulation of relative expression of TRP-1 protein” value ([2]; 10 μM) of the same compound?
Answer: 79.2%

Question: What about the viability at 48 h ([3]; 0–20 μM) of the same compound?
Answer: > 80%

Question: And the “effect on melanin production vs control group (in words)” value [4]?
Answer: did not affect melanin production

Question: What about the “increase of intracellular melanin content” value ([5]; 5 μM) of the same compound?
Answer: 61.6%

Question: And the “increase of intracellular melanin content” value ([5]; 10 μM)?
Answer: 85.5%

Question: What about the “effect on melanin production in B16F10 cells (in words)” value [5] of the same compound?
Answer: stimulated melanin production

Question: What about the “increase of tyrosinase activity” value ([6]; 2.5 μM) of the same compound?
Answer: 25.1%

Question: What about the “increase of tyrosinase activity” value ([6]; 5 μM) of the same compound?
Answer: 42.1%

Question: And the “increase of tyrosinase activity” value ([6]; 10 μM)?
Answer: 77.2%

Question: What about the “effect on tyrosinase activity” value [6] of the same compound?
Answer: enhanced intracellular tyrosinase activity

Question: What about the “upregulation of relative expression of DCT protein” value ([8]; 10 μM) of the same compound?
Answer: 127.8%

Question: And the “upregulation of relative expression of MITF protein” value ([7]; 10 μM)?
Answer: 84.0%

Question: And the “toxicity in zebrafish by the MTC assay” value ([9]; 5, 10, and 20 μM)?
Answer: nontoxic

Question: And the “inhibition type on tyrosinase” value [10]?
Answer: mixed type

Question: Which results are given for `C=C(C)[C@H](CC=C(C)C)Cc1c(O)cc(O)c2c1O[C@H](c1ccc(O)cc1O)CC2=O` [SG, sophoraflavanone G]?
Answer: IC50 [11]: 6.6 µM; effect on melanin production vs model (PTU) group (in words) ([1]; 10 μM): no effect; upregulation of relative expression of TRP-1 protein ([2]; 10 μM): 229.3%; viability at 48 h ([3]; 0–10 μM): > 80%; effect on melanin production in B16F10 cells (in words) [5]: did not exhibit significant activity; also recorded: did not exert any significant effects; increase of expression of TYR [12]: 78.4%; increase of tyrosinase activity in B16F10 cells ([6]; 10 μM): 45.7%; effect on tyrosinase activity in B16F10 cells (in words) [6]: did not exhibit significant activity; upregulation of relative expression of DCT protein ([8]; 10 μM): 70.0%; toxicity in zebrafish by the MTC assay ([9]; 10 μM): nontoxic; inhibition type on tyrosinase [10]: mixed type

Question: Which “reduction of pigmentation” value ([4]; 100 mM) does the source give for `OC[C@H]1O[C@@H](Oc2ccc(O)cc2)[C@H](O)[C@@H](O)[C@@H]1O` [arbutin, reference compound] here?
Answer: 51.4%

Question: For `C=C(C)[C@H](CC=C(C)C)Cc1c(O)cc(OC)c(C(=O)/C=C/c2ccc(O)cc2O)c1O` [kuraridin, reference compound], which IC50 [11] is on record?
Answer: 0.6 µM
